Measurements reported in patent US8148095B2, “Methods for predicting psychotropic drugs which elicit weight gain” (The Johns Hopkins University, priority 2006, dated 2012).
Read-outs that look alike come from different tables or passages of the source.

Legend:
[1] = molecular target: T1, histamine H1 receptors (Rattus norvegicus, UniProt P31390); test: Histamine H1 receptor binding, [3H]mepyramine displacement in rat brain membranes; conditions: 12 concentrations 30 pM to 10 μM, means of 3 determinations
T1 construct: from tissue; host or cells: rat forebrain membranes
T1 sequence (P31390 whole entry): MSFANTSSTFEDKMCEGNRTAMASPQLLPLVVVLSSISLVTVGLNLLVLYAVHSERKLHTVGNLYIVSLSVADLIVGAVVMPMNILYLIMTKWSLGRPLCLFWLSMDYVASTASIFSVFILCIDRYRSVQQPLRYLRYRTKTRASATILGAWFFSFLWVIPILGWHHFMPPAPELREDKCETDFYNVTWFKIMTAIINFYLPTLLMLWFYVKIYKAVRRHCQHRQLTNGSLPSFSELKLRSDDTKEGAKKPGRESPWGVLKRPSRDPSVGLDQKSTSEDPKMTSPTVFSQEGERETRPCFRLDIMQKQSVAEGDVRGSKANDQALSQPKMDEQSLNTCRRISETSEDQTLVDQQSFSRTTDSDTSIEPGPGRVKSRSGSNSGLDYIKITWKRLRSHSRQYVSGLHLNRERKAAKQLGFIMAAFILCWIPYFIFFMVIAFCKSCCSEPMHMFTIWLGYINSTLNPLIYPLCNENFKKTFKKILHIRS
Method: Receptor binding was assayed using rat brain membranes incubated with [^3H]mepyramine and 12 concentrations of drugs ranging from 30 pM to 10 μM in triplicate. […] Hypothalamic Slices
Briefly, rats were killed by decapitation and the forebrains removed. Brains were homogenized in 30 vol of Na-K phosphate buffer, pH 7.5, and centrifuged at 48,000×g for 10 min. The tissue was resuspended in buffer and re-centrifuged for an additional 3 times. Tissue was resuspended in buffer at 15 mg/ml.
Tissue (0.2 ml) was added to tubes containing 25 μl of drug and 25 μl of [3H]mepyramine (30 nM). Non-specific binding was determined in the presence of 1 μM triprolidine.

[2] = system: hypothalamic AMPK; test: Phospho-AMPK in hypothalamic slices by Western blotting; assay type: cell-based, mice; conditions: 30 min; for levels of phospho-AMPK: 500 nM drug; for effect on hypothalamic phospho-AMPK: various concentrations
Description: FIGS. 1A-1F. AAPDs activate AMPK in hypothalamic slices.
The slices were dispersed in artificial cerebrospinal fluid buffer.

[3] = system: phospho-AMPK; conditions: ziprasidone 3 mg/kg i.p., 3 h
Method: Immunohistochemistry was performed with an antibody specific for phospho-AMPK. (FIG. 4D) Quantification of immunohistochemistry. Bars represent the mean±SE of five independent slides. (*p<0.005, **p<0.001 Student's t-test, n=5)
C57BL/6 mice or HR1−/− mice (8-10 weeks) were perfused with 4% paraformaldehyde maintained at 37° C. Organs were post-fixed 2 h at room temperature and cryoprotected overnight at 4° C. (30% sucrose in PBS). Free-floating sections (45 μm) were quenched with 3% H2O2 in water for 10 min at room temperature, washed in TBS-T (16 mM Tris pH 7.4, 140 mM sodium chloride, and 0.1% tween-20), and antigen retrieved for 30 min in a 70° C. water bath (10 mM sodium citrate in TBS-T). Sections were blocked (5% NGS in TBS-T) for 1 h at room temperature and incubated with a mouse anti-phospho-AMPKα antibody (Cell Signaling, Danvers, Mass.) diluted 1:200 into the blocking solution overnight at 4° C. Subsequent washes were conducted in TBST, and labeling was visualized with the Vectastain Elite ABC kit (Vector Laboratories, Burlingame, Calif.). Images were quantified with AlphaEaseFC program.

[4] = system: AMPK; test: Phospho-AMPK in tissues of intact mice by Western blotting; assay type: in vivo; conditions: for stimulation of hypothalamic phospho-AMPK in intact animals: triprolidine 3 mg/kg i.p., 3 h
Method: (§1) FIGS. 2A-2D. AAPDs activate AMPK in intact animals. […] Hypothalami were removed and tissue lysates analyzed for phospho-AMPK or α2-AMPK activity. […] Different parts of brain were isolated and α2-AMPK activity was assayed. Bars represent the mean±SE of three independent lysates performed in triplicate. (* Student's t-test, n=5)
FIGS. 5A-5F. […] Cerebellum and liver were removed and phosphorylated AMPK (AMPK-P) detected by western blotting. Each lane represents tissue from individual mouse. […] Hypothalamus, cerebellum and liver were removed and phosphorylated AMPK (AMPK-P) detected by western blotting. Each lane represents a tissue from individual mouse. […] Hypothalamus and cerebellum were removed and phosphorylated AMPK (AMPK-P) detected by western blotting. Each lane represents a tissue from individual mouse. […] Hypothalami were removed and phosphorylated AMPK (AMPK-P) detected by western blotting. Each lane represents a tissue from an individual mouse. […] Hypothalami were removed and AMPK activity monitored as described in Material and Methods. Bars represent the mean±SE of three independent lysates performed in triplicate.
(§2) Experiments were done at age 8-10 weeks. All drugs were administered by i.p. injection. […] Procedures were approved by guidelines of the Johns Hopkins University School of Medicine Institutional Animal Care and Use Committee.
All drugs were purchased from Toronto Research Chemicals Inc. (Toronto, Canada). […] The drug was diluted with 8.5 ml saline solution, and the appropriate doses were administrated to mice. For control mice, the same solution was injected without a drug. For in vitro assays, drugs were dissolved in DMSO.

[5] = system: α2-AMPK; test: α2-AMPK activity in tissue lysates of intact mice; assay type: in vivo; conditions: leptin 3 mg/kg
Method: as §1, §2

O=C1CCc2ccc(OCCCCN3CCN(c4cccc(Cl)c4Cl)CC3)cc2N1 [Aripipirazole]
IC50 [1]: > 3000 nM
levels of phospho-AMPK [2]: fail to stimulate

O=C(CCCN1CCC(O)(c2ccc(Cl)cc2)CC1)c1ccc(F)cc1 [Haloperidol]
levels of phospho-AMPK [2]: fail to stimulate

Cc1nc2n(c(=O)c1CCN1CCC(c3noc4cc(F)ccc34)CC1)CCCC2 [Risperidone]
levels of phospho-AMPK [2]: fail to stimulate

O=C1Cc2cc(CCN3CCN(c4nsc5ccccc45)CC3)c(Cl)cc2N1 [Ziprasidone]
IC50 [1]: 150 nM
levels of phospho-AMPK [2]: fail to stimulate
phospho-AMPK in the paraventricular nucleus / hypothalamus [3]: fails to alter
phospho-AMPK in the paraventricular nucleus / hypothalamus ([3]; listed as Ziprasodine): no effect

NCCc1c[nH]cn1 [histamine]
effect of histamine on phospho-AMPK ([2]; different concentrations of histamine): decreases

Cc1ccc(/C(=C\CN2CCCC2)c2ccccn2)cc1 [triprolidine]
stimulation of phospho-AMPK ([2]; triprolidine 50 or 500 nM vs clozapine 200 nM): to the same extent as clozapine
stimulation of hypothalamic phospho-AMPK in intact animals [4]: to the same extent as clozapine
stimulation of hypothalamic phospho-AMPK in intact animals ([4]; listed as Triprolidine): activates

insulin
effect on hypothalamic phospho-AMPK [2]: reductions

leptin
effect on hypothalamic phospho-AMPK [2]: reductions
hypothalamic phospho-AMPK ([4]; intact mice, leptin 3 mg/kg): reduces
hypothalamic AMPK catalytic activity [5]: reduces
